Data as given in patent US12492208B2, “Crystal of pyrimidine compound” (TAIHO PHARMACEUTICAL CO., LTD., priority 2020, dated 2025).

Experiments:
Ba/F3-HER2insYVMA cells = experiment: Growth inhibitory activity against HER2 exon 20 insertion mutant expressing cell line; format: cell-based; settings: Mus musculus, 72 h, 3 days, CellTiter-Glo 2.0, read-out: HER2ex20insYVMA cell growth inhibitory activity IC50 value
Method: Growth inhibitory activity against the HER2 exon 20 insertion mutant was measured using Ba/F3 cells that were a mouse B lymphocyte precursor cell line, into which a human HER2 exon 20 insertion mutant gene had been introduced. The Ba/F3 cells were maintained in an RPMI-1640 medium (Thermo Fisher Scientific) supplemented with 10% fetal bovine serum (FBS), 100 U/mL penicillin, 100 μg/mL streptomycin (Thermo Fisher Scientific) and 1 ng/mL mouse interleukin-3 (mIL-3) (CST).
Upon evaluation of cell growth inhibitory activity, the Ba/F3-HER2insYVMA cells were suspended in an RPMI-1640 medium supplemented with 10% FBS, 100 U/mL penicillin, and 100 μg/mL streptomycin. The cell suspension was seeded in each well of a 96-well flat-bottom microplate, and was then cultured in a 5% carbon dioxide gas-containing culture vessel at 37° C. for 1 day. The compound (I) obtained according to the method in Synthesis Example 1 was dissolved in DMSO, and was then diluted with DMSO or the medium used in the suspension of the cells. The obtained solution was then added to each well of the culture plate, so that the final concentration of DMSO became 0.2%. […] After completion of the culture for 3 days in the presence of the compound, the cells were counted using CellTiter-Glo 2.0 (manufactured by Promega), and the growth inhibition percentage was then calculated according to the following equation. […]

[1] = test system: Luciferase gene-introduced HER2 expressing cell line (NCI-N87-Luc); experiment: Antitumor effect confirmation test (in vivo) on direct brain transplantation models; parameters: species or system nude mouse (BALB/cAJcl-nu/nu); settings: 25 mg/kg/day oral, 21 days
Method: In order to confirm the antitumor effects of a test compound on direct brain transplantation models, NCI-N87-Luc, which was obtained by introducing a luciferase gene into NCI-N87 that was a human stomach cancer tumor cell line purchased from American Type Culture Collection, was used. The NCI-N87-Luc was added into a 10% fetal bovine serum (FBS)-containing RPMI-1640 medium (supplemented with 4.5 g/L glucose, 10 mM HEPES, and 1 mM sodium pyruvate) (Wako Pure Chemical Industries, Ltd.), and this cell line was then cultured in a 5% CO2 incubator at 37° C.
The NCI-N87-Luc cells were re-suspended in PBS in a concentration of 6.25×10^7 cells/mL. […]
As a reference of the amount of brain tumor, approximately 3 weeks after the transplantation, Total Flux (Photon/sec) was measured in all of the survival cases, using IVIS (PerkinElmer, Inc., model: Lumina II). […]
The value obtained by logarithmic transformation (Log 10) of the total flux on Day 22 in each group was analyzed by a significance test. […] A body weight change percentage (Body weight change; BWCn) from the body weight on the n^th day (BWn) was calculated according to the following equation: BWCn (%)=[(body weight on n^th day)−(body weight on grouping day)]/[(body weight on grouping day)]×100.

For C=CC(=O)N1C[C@H](n2c(C#CC3CC3)c(C(=O)N[C@H](C)c3ccccc3)c3c(N)ncnc32)C[C@@H]1C [compound (I), 7-((3R,5S)-1-acryloyl-5-methylpyrrolidin-3-yl)-4-amino-6-(cyclopropylethynyl)-N—((R)-1-phenylethyl)-7H-pyrrolo[2,3-d]pyrimidine-5-carboxamide], the IC50 (Ba/F3-HER2insYVMA cells) was 29 nM, the “body weight reduction of −20% or more” value ([1]; all mice) was “not observed” and the “Log 10 of the total flux on Day 22 versus control group” value ([1]; once a day, significance level (both sides) 5%) was “statistically significantly lower”.
